Entries after “also recorded” stand apart in the source; their conditions may differ.
Columns and labels:
Type in all cases: in vivo, mouse
NOD mice [1] = experiment: Glucose post oral insulin in fasting 7 week NOD mice (Example 2); settings: for endocrinologic effect on blood glucose: oral 1 mg, over 24 hours
Experimental: In order to determine whether any endocrinologic (i.e. direct lowering of blood sugar) effects occurred following the feeding of insulin, 7 week old NOD mice (5 mice per group) were fed 1 mg of porcine insulin or 1 mg of myelin basic protein (obtained from Pel Freez, Rogers, Ark.) as a control protein. Blood glucose was then measured over the next 24 hour period. As a positive control, a separate group of animals were injected subcutaneously with 20 micrograms of Porcine insulin. All animals were kept in the fasting state.

NOD mice [2] = experiment: Insulitis in insulin-fed NOD mice (preliminary experiments); settings: fed 1 mg, vs PBS-fed NOD mice; data not shown
From the text: Therefore, oral administration of insulin to NOD mice appeared to be affecting the infiltration of immune system cells into the pancreas and thus halting disease progression by preserving beta cell function.

NOD mice [3] = experiment: Treatment of initial stages of diabetes in hyperglycemic NOD mice (Example 5); settings: oral and aerosol, 0 to 1 mg, hyperglycemic NOD mice from weeks 12-20
Experimental: Insulin (0 to 1 mg as in Examples 1 and 2) will be administered to NOD mice which are suffering from hyperglycemia in an oral and aerosol form. The treatments will begin by weeks 12 -20 of age, by which the serum glucose levels are at hyperglycemic concentrations in a certain percentage of animals prior to onset of diabetes.

[4] = test system: NOD (non-obese diabetic) mice; experiment: Spontaneous diabetes in NOD mice after oral feeding (Examples 1 and 3); settings: for development of diabetes: FIG. 1
From the text: NOD (non-obese diabetic mice) were obtained from Taconic Laboratories (Germantown, Mass.) at 4 weeks of age. There were a total of 30 animals in each of the groups mentioned below at the beginning of the experiment. At 4 ½ weeks of age, animals were orally administered Porcine insulin (Novo Laboratories, Danbury, Conn.). Each animal received two treatments orally twice a week until 9 weeks of age. The mice were fed either saline (control) or 10 micrograms, 100 micrograms, or 1 milligram of Porcine insulin. The animals were fed (gavaged) with an 18 gauge ball-point needle (Popper and Sons, Inc., New Hyde Park, N.Y.). Beginning at 10 weeks the animals were then fed once a week for a total of 33 weeks. Beginning at 12 weeks the urine was tested weekly for the presence of glucose using Glucosuria test tape (Eli Lilly, Indianapolis, Ind.). If an animal tested 3+or higher on the glucose urine test, a serum sample was taken and blood glucose measured using a glucose analyzer (Beckman). If the blood glucose was 220 or higher, the animals were classified as diabetic and then sacrificed. An identical experiment to Example 1 was performed in which NOD mice (14-17 per group) were fed one homogenized pancreas derived from Lewis rats in 0.5 mls PBS. […] Nonetheless, the effect is not as dramatic and complete as that seen in the animals fed insulin.

NOD mice [5] = experiment: Aerosol administration of insulin on diabetes in NOD mice (Example 4); settings: aerosol by nebulizer, 0 to 1 mg
Experimental: Insulin (0 to 1 mg as in Examples 1 and 2) will be administered to NOD mice as described above in Examples 1 and 2 except in aerosol form by nebulizer.

Substance	endocrinologic effect on blood glucose (NOD mice [1]; FIG. 2)	period over which the glucose decrease persisted (NOD mice [1]; subcutaneous 20 micrograms) [h]	decrease in blood glucose level (NOD mice [1]; subcutaneous 20 micrograms, FIG. 2)	inflammatory immune system cells surrounding the pancreas (insulitis) (NOD mice [2])	beta cell function (NOD mice [3])	serum glucose concentrations (NOD mice [3])	treated animals that failed to develop diabetes ([4]; oral 1 mg (highest dose)) [%]	development of diabetes ([4]; oral 1 mg, twice a week until 9 weeks of age, then once a week)	development of diabetes ([4]; oral 10 microgram group, dose response fashion)	development of diabetes ([4]; oral 100 microgram group, dose response fashion)	incidence / development of diabetes ([4]; oral, all doses tested (10 micrograms, 100 micrograms, 1 mg))	prevention of symptoms (hyperglycemia) of Type 1 diabetes (NOD mice [5])
Porcine insulin	no drop in the blood glucose; also recorded: no endocrinologic (metabolic) effects	4	approximately 80 mg %	fewer inflammatory immune system cells surrounding the pancreas	preservation of beta cell function	reduction in serum glucose concentrations to near normal levels	100	none of the mice went on to develop diabetes; also recorded: no diabetes developed; also recorded: None of the animals developed diabetes	diabetes developed	diabetes developed	lower incidence of diabetes at all doses; also recorded: reduced the numbers of these mice which subsequently went on to develop diabetes	effective in preventing the manifestation of symptoms
myelin basic protein	no drop in the blood glucose	–	–	–	–	–	–	–	–	–	–	–

From patent US20010056063A1, “METHOD OF TREATING OR PREVENTING TYPE 1 DIABETES BY ORAL ADMINISTRATION OF INSULIN” (priority 1990, published 2001)
